From patent publication US20170016062A1, “SEQUENCING METHODS AND KITS” (NEW YORK UNIVERSITY, priority 2015, published 2017)

Columns and labels:
[1] = system: MG1655 E. coli (rpoB and mrcA regions of interest); assay: Maximum-Depth Sequencing (MDS) of mutation rates in E. coli grown with sub-inhibitory antibiotic doses; format: cell-based, Escherichia coli; conditions: for rate of transition mutations in rpoB: wild-type MG1655, aerobic, 1 μL/mL ampicillin or 15 ng/mL norfloxacin
Method: E. coli were streaked onto Luria-Bertani (LB) Agar from freezer stocks and grown at 30° C. for 24 hours. According to plating and colony-forming unit (CFU) counting, the average number of cells in such colonies is 3×10^8 (thus the number of generations is […]. Bacteria from a single colony were used to inoculate a small liquid culture (1 ml LB broth in a round-bottom tube). For the purposes of generation counting, it is assumed that after the transition to growing in liquid, growth occurs for only ˜3 generations, since the number of bacteria in the colony is roughly equal to the carrying capacity of the broth. The culture was grown for 12 hours on a 37° C. shaker.
4 μL (˜10^7 bacteria) were transferred to a fresh 100 mL LB liquid culture (in a 250 mL Erlenmeyer flask). Liquid cultures were grown for 24 hours on a 37° C. shaker, to a density of 2.5×10^9 bacteria according to cell counts (for a total of 2.5×10^11 bacteria). This process was performed 9 times. The average number of generations a bacterium would have grown in each liquid culture is
Four biological replicates of each condition were grown. All liquid cultures, including the small founding culture, had the possible addition of 1 μL/mL ampicillin or 15 ng/mL norfloxacin. […] The fact that most of the “interrelatedness” between bacteria sampled at the end of the culture is important for the way mutation rate is calculated.
MG1655 E. coli were used as wild-type cells for all experiments. The tet-regulated mrcA strain MG1655(CmR::Ptet-mrcA SpR::tetR) was prepared according to Lutz, R.; Bujard, H. (1997) Independent and tight regulation of transcriptional units in Escherichia coli via the LacR/O and the TetR/O and AraC/I1-I2 regulatory elements. Nucleic Acids Research. 25(6):1203-10. […] PNAS 111(20):E2100-E2109, doi: 10.1073/pnas.1201876111. Mutant strains were induced with anhydrous tetracycline at 50 ng/ml. In the mutS knockout strain, MG1655 mutS was replaced with a kanamycin resistance cassette.
0. Restriction digest. a. Incubate 1 μg DNA in 50 μL 1× restriction enzyme buffer with the appropriate amount of restriction enzyme. For this study, 1 unit XmnI was used. Samples were incubated at 37° C. overnight. b. Deactivate restriction enzyme. For XmnI, samples were heated at 65° C. for 20 minutes. 1. 1 cycle PCR with adapter-barcode-primer a. Prepare 50 μL PCR reaction mix using adapter-barcode-primer and 12.5 μL of the sample above (250 ng DNA) b. PCR, 1 cycle: 98° C. 1 min, 60° C. 15 sec, 72° C. 1 min 2. Remove unused barcodes a. Immediately add 1 μL exonuclease I+5 μL buffer. b. Incubate at 37° C. for 1 hr, then 80° C. for 20 min c. Clean sample using PCR purification kit 3. Linear amplification using forward adapter amplifier primers a. Add cleaned DNA to fresh 50 μL reaction mix with forward adapter amplifier primer. b. PCR, 12 cycles: 98° C. 15 sec, 61° C. 15 sec, 72° C. 5 sec Note: The number of linear amplification cycles is limited by off-target amplification.
a. Add adapter-reverse-primer and reverse adapter amplifier primers. b. PCR, 15 cycles: 98° C. 15 sec, 61° C. 15 sec, 72° C. 5 sec 5. Purify with Ampure XP beads Optional: If using multiple samples with phased barcodes, combine DNA first in equimolar concentrations. For this study, quantification at this step was done using TapeStation. 6. Sequence. HiSeq Rapid Run, 150 bp, Paired-End.
After grouping by barcode, sequences were aligned using the forward and reverse [primer] sequences for mrcA and rpoB above. Samples were indexed according to phase. Consensus bases, including indels, are called only when all bases at a given position and barcode have 100% agreement.
Mutation rates in the assay are chosen to maximize the likelihood of recovering the mean mutant frequency for substitutions of a given type X->Y, which occur a Poisson process over a certain number of generations (in this case 113). […]

E. coli = assay: Fluctuation assay of mutation rate with sub-inhibitory antibiotic doses; format: cell-based, Escherichia coli
Description: The effect of sub-inhibitory doses of antibiotics of different classes on mutation rate was investigated using both MDS and detailed fluctuation assays as performed in Garibyan, L. et al. (2003). DNA Repair. 2(5):593-608; and Lang, G. I.; et al. (2008). Genetics 178(1):67-82.

CC1(C)S[C@@H]2[C@H](NC(=O)[C@H](N)c3ccccc3)C(=O)N2[C@H]1C(=O)O [ampicillin]
mutation rate in cells overexpressing catalase ([1]; MDS, catalase overexpression mutant, lower basal rate): did not increase this lower rate | transversions and indel formation in mrcA ([1]; MDS, mrcA): increased transversions and indel formation in mrcA | rate of transition mutations in rpoB ([1]; MDS): increase in the rate of transition mutations in rpoB | transition rate, anaerobic conditions ([1]; cells grown in anaerobic conditions): did not display an increase in transition rate

CCn1cc(C(=O)O)c(=O)c2cc(F)c(N3CCNCC3)cc21 [norfloxacin]
rate of >1 bp indel formation in both mrcA and rpoB ([1]; MDS, 15 ng/mL norfloxacin): increased the rate of >1 bp indel formation in both mrcA and rpoB | rate of transition mutations in rpoB ([1]; MDS): increased the transition substitution rate in rpoB | transition substitution rate in rpoB, fluctuation assays (E. coli): this increase was only seen in cells that were grown to stationary phase
